# The source made the active and inactive calls.
# Experiments:
# Format in all cases: functional
# Hexokinase-1 = molecular target: T1, Hexokinase-1 (Homo sapiens, UniProt P19367); test: SAR analysis of small molecule inhibitors of hexokinase domain containing I (HKDC1) in the hexokinase 1 selectivity assay. [Related pubchem assays (depositor defined):AID493160, AID493190]
# T1 sequence (P19367 whole entry): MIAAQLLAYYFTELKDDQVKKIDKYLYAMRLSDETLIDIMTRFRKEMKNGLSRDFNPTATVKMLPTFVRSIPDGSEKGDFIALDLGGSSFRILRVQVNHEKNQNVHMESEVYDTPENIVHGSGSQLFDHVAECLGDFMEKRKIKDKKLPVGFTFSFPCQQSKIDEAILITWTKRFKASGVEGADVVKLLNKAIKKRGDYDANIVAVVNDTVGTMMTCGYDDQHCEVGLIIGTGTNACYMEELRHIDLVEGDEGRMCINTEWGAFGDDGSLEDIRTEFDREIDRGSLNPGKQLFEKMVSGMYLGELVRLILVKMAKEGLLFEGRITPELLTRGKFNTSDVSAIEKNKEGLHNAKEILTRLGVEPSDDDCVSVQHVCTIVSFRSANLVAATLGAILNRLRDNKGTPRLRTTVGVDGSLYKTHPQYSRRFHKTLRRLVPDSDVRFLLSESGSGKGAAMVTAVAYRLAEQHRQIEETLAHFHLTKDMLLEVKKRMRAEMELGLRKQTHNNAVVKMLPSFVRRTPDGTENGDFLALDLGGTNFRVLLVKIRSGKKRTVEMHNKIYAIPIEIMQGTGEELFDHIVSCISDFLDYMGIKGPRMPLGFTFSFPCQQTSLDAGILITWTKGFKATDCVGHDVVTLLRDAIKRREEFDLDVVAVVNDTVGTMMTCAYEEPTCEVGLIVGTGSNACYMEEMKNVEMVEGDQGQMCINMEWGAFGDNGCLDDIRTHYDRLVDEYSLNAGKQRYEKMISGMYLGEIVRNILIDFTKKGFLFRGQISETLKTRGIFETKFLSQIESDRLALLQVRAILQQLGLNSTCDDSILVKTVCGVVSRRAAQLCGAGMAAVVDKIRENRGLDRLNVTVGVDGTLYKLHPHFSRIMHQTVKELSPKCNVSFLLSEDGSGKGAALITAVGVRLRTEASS
# Hexokinase HKDC1 = molecular target: T2, Hexokinase HKDC1 (Homo sapiens, UniProt Q2TB90); test: SAR analysis of small molecule inhibitors of hexokinase domain containing I (HKDC1). [Related pubchem assays (depositor defined):AID493160, AID493190]
# T2 sequence (Q2TB90 whole entry): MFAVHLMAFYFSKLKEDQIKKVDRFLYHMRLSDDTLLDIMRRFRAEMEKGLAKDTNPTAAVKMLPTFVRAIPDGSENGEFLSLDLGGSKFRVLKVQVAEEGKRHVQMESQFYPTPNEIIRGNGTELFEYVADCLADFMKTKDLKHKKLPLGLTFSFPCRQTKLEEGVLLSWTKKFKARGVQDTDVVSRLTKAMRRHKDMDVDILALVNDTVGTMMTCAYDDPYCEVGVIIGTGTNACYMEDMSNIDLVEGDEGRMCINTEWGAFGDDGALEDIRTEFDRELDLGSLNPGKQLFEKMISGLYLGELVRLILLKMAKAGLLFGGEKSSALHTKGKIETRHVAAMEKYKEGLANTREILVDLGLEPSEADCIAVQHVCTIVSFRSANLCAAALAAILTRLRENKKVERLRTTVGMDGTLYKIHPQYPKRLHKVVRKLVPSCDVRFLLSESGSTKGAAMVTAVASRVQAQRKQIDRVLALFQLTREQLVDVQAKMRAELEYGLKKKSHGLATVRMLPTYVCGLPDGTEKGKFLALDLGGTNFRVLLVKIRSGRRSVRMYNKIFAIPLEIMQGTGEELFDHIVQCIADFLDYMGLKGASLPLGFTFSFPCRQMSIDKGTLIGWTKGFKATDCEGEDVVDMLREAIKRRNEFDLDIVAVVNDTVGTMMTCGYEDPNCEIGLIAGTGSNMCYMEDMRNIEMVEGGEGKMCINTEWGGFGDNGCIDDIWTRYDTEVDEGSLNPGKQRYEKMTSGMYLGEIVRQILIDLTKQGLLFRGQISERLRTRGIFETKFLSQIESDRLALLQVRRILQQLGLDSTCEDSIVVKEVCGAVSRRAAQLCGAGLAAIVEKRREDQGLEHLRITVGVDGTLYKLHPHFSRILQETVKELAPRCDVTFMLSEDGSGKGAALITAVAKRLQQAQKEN
# [1] = molecular target: Polyadenylate-binding protein 1 (Homo sapiens, UniProt P11940); test: MLLE binding blockers, Cy5 peptide tracer – biochemical, fluorescence polarization, Cy5-PAM2 peptide, secondary, miRNA deadenylation inhibitor project, dose response (AID 602260); settings: read-out: IC50_Mean
# [2] = molecular target: T3, Sentrin-specific protease 8 (Homo sapiens, UniProt Q96LD8); test: inhibition of human SENP8 cleavage activity – biochemical, luminescence, SAR follow-up (AID 504501)
# T3 sequence (Q96LD8 whole entry): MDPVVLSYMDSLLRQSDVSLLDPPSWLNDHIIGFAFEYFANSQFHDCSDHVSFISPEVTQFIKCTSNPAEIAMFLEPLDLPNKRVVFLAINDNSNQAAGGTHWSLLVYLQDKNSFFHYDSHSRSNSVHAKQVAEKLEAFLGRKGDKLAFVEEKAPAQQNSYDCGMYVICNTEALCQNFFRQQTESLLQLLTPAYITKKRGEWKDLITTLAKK
# Caspase-3 = molecular target: T4, Caspase-3 (Homo sapiens, UniProt P42574); test: SAR Analysis of small molecule inhibitors of Sentrin-specific proteases (SENPs) using a Caspase-3 Selectivity assay. [Related pubchem assays (depositor defined):AID2540, AID2599, AID434973, AID489001]
# T4 sequence (P42574 whole entry): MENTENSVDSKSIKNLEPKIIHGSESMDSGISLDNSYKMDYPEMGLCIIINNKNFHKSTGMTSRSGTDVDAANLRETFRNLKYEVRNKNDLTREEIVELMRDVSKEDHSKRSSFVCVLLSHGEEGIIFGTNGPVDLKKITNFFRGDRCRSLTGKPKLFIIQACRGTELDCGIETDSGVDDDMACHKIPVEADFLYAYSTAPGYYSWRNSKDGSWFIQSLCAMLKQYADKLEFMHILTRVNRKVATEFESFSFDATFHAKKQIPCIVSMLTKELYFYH
# [3] = Intein inhibitors as potential Tuberculosis drugs, a cytotoxicity screen. [Related pubchem assays (depositor defined):AID2221, AID2223, AID434968, AID435010, AID449749, AID449750, AID489010]
# 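Wherever CC50 is given: cells exposed to compound for 72 hours before luminescence readout.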
# Chain of Polyadenylate-binding protein 1 (P11940 whole entry): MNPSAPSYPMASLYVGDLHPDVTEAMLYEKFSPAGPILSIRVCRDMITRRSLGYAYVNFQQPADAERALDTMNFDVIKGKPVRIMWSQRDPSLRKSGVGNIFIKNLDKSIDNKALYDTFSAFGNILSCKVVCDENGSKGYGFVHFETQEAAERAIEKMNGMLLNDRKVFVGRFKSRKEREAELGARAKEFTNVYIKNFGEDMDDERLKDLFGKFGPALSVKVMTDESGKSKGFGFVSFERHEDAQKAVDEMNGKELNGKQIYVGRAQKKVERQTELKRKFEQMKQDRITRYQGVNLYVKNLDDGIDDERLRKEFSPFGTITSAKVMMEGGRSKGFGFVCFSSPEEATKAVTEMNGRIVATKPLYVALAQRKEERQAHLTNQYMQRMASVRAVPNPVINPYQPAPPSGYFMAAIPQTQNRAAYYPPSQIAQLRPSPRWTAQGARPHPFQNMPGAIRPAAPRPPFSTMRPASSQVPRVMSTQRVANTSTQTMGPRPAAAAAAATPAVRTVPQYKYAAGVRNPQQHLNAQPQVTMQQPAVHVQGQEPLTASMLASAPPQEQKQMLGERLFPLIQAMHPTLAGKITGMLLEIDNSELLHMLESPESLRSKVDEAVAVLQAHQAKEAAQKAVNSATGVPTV
structure (smiles),measurement,setting,value
O=C(O)CSc1cc(NS(=O)(=O)c2ccc(Cl)cc2)c2ccccc2c1O,IC50,Hexokinase-1,> 80 µM (inactive)
same,IC50,Hexokinase HKDC1,8.9 µM (active)
same,IC50,[1],> 66 µM (inactive)
Oc1ccccc1/C=C/c1noc(-c2ccccc2O)n1,IC50,[2],> 99 µM (inactive)
same,IC50,Caspase-3,21 µM (active)
Cc1nn(-c2ccccc2)c(Cl)c1CN(C(=O)CCl)c1ccc(Cl)cc1,CC50,[3],2.06 µM (active)
